Results taken from patent US9447100B2, “Substituted pyrazolo[1,5-A] pyrimidines as calcium receptor modulating agents” (Takeda Pharmaceutical Company Limited, priority 2002, dated 2016).
Where a name gives a salt, the structure may show the parent alone.

| Compound | melting point [°C] |
| --- | --- |
| CCC(NC(=O)c1cnn2c1NC(c1ccccc1)CC2(C)C)c1ccccc1Br (stereo not shown) [Example 416, N-(1-(2-bromophenyl)propyl)-7,7-dimethyl-5-phenyl-4,5,6,7-tetrahydropyrazolo[1,5-a]pyrimidine-3-carboxamide] | 200 to 201 |
| CCC(CC)(NC(=O)c1cnn2c1NC(c1ccccc1)CC2(C)C)c1ccc(Cl)c(Cl)c1 (stereo not shown) [Example 666, N-(1-(3,4-dichlorophenyl)-1-ethylpropyl)-7,7-dimethyl-5-phenyl-4,5,6,7-tetrahydropyrazolo[1,5-a]pyrimidine-3-carboxamide] | 156 to 157 |
| O=C(NCc1ccc(Oc2ccc(F)cc2)cc1)c1cnn2c1NC(c1ccccc1)CC2C(F)(F)F (stereo not shown) [Example 271, N-(4-(4-fluorophenoxy)benzyl)-5-phenyl-7-(trifluoromethyl)-4,5,6,7-tetrahydropyrazolo[1,5-a]pyrimidine-3-carboxamide] | 169 to 172 |
| CC(C)C(NC(=O)c1cnn2c1NC(c1ccccc1)CC2(C)C)C(C)C (stereo not shown) [Example 621, N-(1-isopropyl-2-methylpropyl)-7,7-dimethyl-5-phenyl-4,5,6,7-tetrahydropyrazolo[1,5-a]pyrimidine-3-carboxamide] | 168 to 169 |
| CCC(C#N)NC(=O)c1cnn2c1N[C@H](c1ccccc1)C[C@@H]2C(F)(F)F (stereo in doubt) [Example 284, N-(1-cyanopropyl)-5-phenyl-7-(trifluoromethyl)-4,5,6,7-tetrahydropyrazolo[1,5-a]pyrimidine-3-carboxamide] | 201 to 202 |
| CCc1ccc(C2CC(C(F)(F)F)n3ncc(C(=O)O)c3N2)cc1 (stereo not shown) [Example 28, 5-(4-ethylphenyl)-7-(trifluoromethyl)-4,5,6,7-tetrahydropyrazolo[1,5-a]pyrimidine-3-carboxylic acid] | 165 to 168 |
| CCC(CC)(NC(=O)c1cnn2c1NC(c1ccccc1O)CC2(C)C)c1ccc(C(F)(F)F)cc1 (stereo not shown) [Example 629, N-(1-ethyl-1-(4-(trifluoro-methyl)phenyl)propyl)-5-(2-hydroxyphenyl)-7,7-dimethyl-4,5,6,7-tetrahydropyrazolo[1,5-a]pyrimidine-3-carboxamide] | 122 to 124 |
| CCC(CC)(NC(=O)c1c(C)nn2c1N[C@@H](c1ccccc1)CC2(C)C)c1ccc(C)c(Cl)c1 (as salt: HCl) [Example 1069, (5R)-N-(1-(3-chloro-4-methylphenyl)-1-ethylpropyl)-2,7,7-trimethyl-5-phenyl-4,5,6,7-tetrahydropyrazolo[1,5-a]pyrimidine-3-carboxamide] | 129 to 130 |
| CCC(CC)(CCOC)NC(=O)c1cnn2c1NC(c1ccccc1)CC2(C)C (stereo not shown) [Example 664, N-(1,1-diethyl-3-methoxypropyl)-7,7-dimethyl-5-phenyl-4,5,6,7-tetrahydropyrazolo[1,5-a]pyrimidine-3-carboxamide] | 129 to 130 |
| CC(NC(=O)c1cnn2c1N[C@H](c1ccccc1)C[C@@H]2C(F)(F)F)C(=O)c1ccccc1 (stereo in doubt) [Example 290, N-(1-methyl-2-oxo-2-phenylethyl)-5-phenyl-7-(trifluoromethyl)-4,5,6,7-tetrahydropyrazolo[1,5-a]pyrimidine-3-carboxamide] | 271 to 272 |
| O=C(NC1(C(=O)Nc2ccccc2)CCCCC1)c1cnn2c1N[C@H](c1ccccc1)C[C@@H]2C(F)(F)F (stereo in doubt) [Example 371, N-(1-(anilinocarbonyl)cyclohexyl)-5-phenyl-7-(trifluoromethyl)-4,5,6,7-tetrahydropyrazolo[1,5-a]pyrimidine-3-carboxamide] | 262 to 263 |
| CCC1(NC(=O)c2cnn3c2NC(c2ccccc2)CC3(C)C)CCCCC1 (stereo not shown) [Example 431, N-(1-ethylcyclohexyl)-7,7-dimethyl-5-phenyl-4,5,6,7-tetrahydropyrazolo[1,5-a]pyrimidine-3-carboxamide] | 166 to 167 |
| CC(C)[C@H]1CC[C@H](C)CC1OC(=O)c1cnn2c1NC(c1ccccc1)CC2(C)C (stereo partly drawn) [Example 1140, (2R,5S)-2-isopropyl-5-methylcyclohexyl 7,7-dimethyl-5-phenyl-4,5,6,7-tetrahydropyrazolo[1,5-a]pyrimidine-3-carboxylate] | 123 to 124 |
| CCC1(CC)C[C@@H](O)CN1C(=O)c1cnn2c1N[C@@H](c1ccccc1)CC2(C)C [Example 1115, (3R)-1-(((5R)-7,7-dimethyl-5-phenyl-4,5,6,7-tetrahydropyrazolo[1,5-a]pyrimidin-3-yl)carbonyl)-5,5-diethyl-3-pyrrolidinol] | 250 to 252 |

Now from value to compound:

| melting point [°C] | Compound |
| --- | --- |
| 120 to 123 | CCC(CC)(NC(=O)c1c(C)nn2c1NC(c1cccc(C)c1)CC2(C)C)c1ccc(C)cc1 (stereo not shown) (as salt: HCl) [Example 974, N-(1-ethyl-1-(4-methylphenyl)propyl)-2,7,7-trimethyl-5-(3-methylphenyl)-4,5,6,7-tetrahydropyrazolo[1,5-a]pyrimidine-3-carboxamide] |
| 195 to 196 | CCC(CC)(NC(=O)c1cnn2c1NC(c1ccccc1)CC2(C)C)c1cccc(Cl)c1 (stereo not shown) [Example 614, N-(1-(3-chlorophenyl)-1-ethylpropyl)-7,7-dimethyl-5-phenyl-4,5,6,7-tetrahydropyrazolo[1,5-a]pyrimidine-3-carboxamide] |
| 187 to 188 | CCC(CC)(NC(=O)c1c(C)nn2c1NC(c1ccccc1C)CC2(C)C)c1ccc(C)cc1 (stereo not shown) (as salt: HCl) [Example 782, N-(1-ethyl-1-(4-methylphenyl)propyl)-2,7,7-trimethyl-5-(2-methylphenyl)-4,5,6,7-tetrahydropyrazolo[1,5-a]pyrimidine-3-carboxamide] |
| 204 to 205 | CCC(NC(=O)c1cnn2c1NC(c1ccccc1)CC2C(F)(F)F)c1ccccc1F (stereo not shown) [Example 400, N-(1-(2-fluorophenyl)propyl)-5-phenyl-7-(trifluoromethyl)-4,5,6,7-tetrahydropyrazolo[1,5-a]pyrimidine-3-carboxamide] |
| 141 to 142 | CCC(CC)(NC(=O)c1c(C)nn2c1N[C@@H](c1ccccc1)CC2(C)C)c1ccc(N(C)C)cc1 (as salt: HCl) [Example 1071, (5R)-N-(1-(4-(dimethylamino)phenyl)-1-ethylpropyl)-2,7,7-trimethyl-5-phenyl-4,5,6,7-tetrahydropyrazolo[1,5-a]pyrimidine-3-carboxamide] |
| 200.9 to 201 | CCC(CC)(NC(=O)c1cnn2c1NC(c1ccccc1F)CC2(C)C)c1ccc(C(F)(F)F)cc1 (stereo not shown) [Example 675, N-(1-ethyl-1-(4-(trifluoromethyl)phenyl)propyl)-5-(2-fluorophenyl)-7,7-dimethyl-4,5,6,7-tetrahydropyrazolo[1,5-a]pyrimidine-3-carboxamide] |
| 152 to 154 | CCC(CC)(NC(=O)c1c(C)nn2c1NC(c1ccc(C)cc1)CC2(C)C)c1ccc(C)cc1 (stereo not shown) (as salt: HCl) [Example 973, N-(1-ethyl-1-(4-methylphenyl)propyl)-2,7,7-trimethyl-5-(4-methylphenyl)-4,5,6,7-tetrahydropyrazolo[1,5-a]pyrimidine-3-carboxamide] |
| 178 to 179 | CC(NC(=O)c1cnn2c1N[C@H](c1ccccc1)C[C@@H]2C(F)(F)F)C(=O)c1ccccc1 (stereo in doubt) [Example 291, N-(1-methyl-2-oxo-2-phenylethyl)-5-phenyl-7-(trifluoromethyl)-4,5,6,7-tetrahydropyrazolo[1,5-a]pyrimidine-3-carboxamide] |
